US20260356819A1, “OXOISOINDOLINYL-SUBSTITUTED […] DERIVATIVE AND USE THEREOF” (GLUETACS THERAPEUTICS (SHANGHAI) CO., LTD., priority 2023, published 2026)

Columns and labels:
[1] = target: T1, IKZF2 (Homo sapiens, UniProt Q96SW2+Q9UKS7); assay: Western blot degradation of IKZF2 in hPBMCs (24 h); assay type: cell-based; conditions: compounds at 50 nM and 500 nM
T1 construct: The supernatant was aspirated as the extracted total cell protein; endogenous in cells; host or cells: human peripheral blood mononuclear cells (hPBMCs)
In short: (§1)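 Read-out is Western blot band grayscale, divided by internal control band and normalised to give percent target protein remaining; degradation rate is 1 minus that value. Cells were human PBMCs exposed to compound at 50 nM and 500 nM for 24 hours.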

[2] = target: T2, IKZF3 (Homo sapiens, UniProt Q96SW2+Q9UKT9); assay: Western blot degradation of IKZF3 in hPBMCs (24 h); assay type: cell-based; conditions: compounds at 50 nM and 500 nM
T2 construct: The supernatant was aspirated as the extracted total cell protein; endogenous in cells; host or cells: human peripheral blood mononuclear cells (hPBMCs)
In short: as §1

[3] = target: T3, GSPT1 (Homo sapiens, UniProt P15170+Q96SW2); assay: Western blot degradation of GSPT1 in hPBMCs (24 h); assay type: cell-based; conditions: compounds at 50 nM and 500 nM
T3 construct: The supernatant was aspirated as the extracted total cell protein; endogenous in cells; host or cells: human peripheral blood mononuclear cells (hPBMCs)
In short: as §1

[4] = target: T4, IKZF1 (Homo sapiens, UniProt Q13422+Q96SW2); assay: Western blot degradation of IKZF1 in hPBMCs (24 h); assay type: cell-based; conditions: compounds at 50 nM and 500 nM
T4 construct: The supernatant was aspirated as the extracted total cell protein; endogenous in cells; host or cells: human peripheral blood mononuclear cells (hPBMCs)
In short: as §1

[5] = target: T5, WEE1 (Homo sapiens, UniProt P30291+Q96SW2); assay: Western blot degradation of WEE1 in hPBMCs (24 h); assay type: cell-based; conditions: compounds at 50 nM and 500 nM
T5 construct: The supernatant was aspirated as the extracted total cell protein; endogenous in cells; host or cells: human peripheral blood mononuclear cells (hPBMCs)
In short: as §1

[6] = test system: MGC803 cells; assay: Inhibition of proliferation of gastric cancer cells MGC803 (cell viability assay, 96 h); assay type: cell-based, human; conditions: read-out: inhibitory activity (IC50) against tumor cells proliferation, MGC803
Description: The tumor cells used herein were cultured in a cell culture medium listed in table 2 at 37 °C in an incubator with 5% CO2. Prior to experimentation, all cell lines used were correctly identified by STR profiling, and tested negative for Mycoplasma contamination using a Mycoplasma detection kit through routine screenings.
The IC50 values of the compounds of the present disclosure (including the compounds in Table 1, and Examples 1-498) were determined using the CellTiter-Meiluncell Luminescent Cell Viability Assay Kit from Dalian Meilun Biotech Co., Ltd. The detailed procedure is as follows: Tumor cells were seeded in 96-well cell culture plates at the densities specified in Table 3. On the following day, the test compounds of the present disclosure were subjected to serial dilution. […] Subsequently, 0.5 μL of the test compound dilution was transferred into the 96-well plate containing the cells, with each well containing 100 μL of cell culture medium. […] Into the 96-well plate, the diluted test compounds and corresponding detection reagents were added, resulting in final test compound concentrations of 500 nM and 10 nM, respectively. The experimental procedure is described below using the diluted 2 μM test compound as an example.
0.5 μL of the aforementioned diluted compound of the present disclosure (including the compounds in Table 1, and Examples 1-498) was added to the seeded cells in 100 μL of medium, yielding a final test compound concentration of 10 nM. After the cells were treated with the compounds of the present disclosure for a specified period, the cell viability assay reagent was added to the culture medium according to the kit's instructions to determine cell viability. […] All controls were treated using the same procedure as the compounds of the present disclosure. The growth inhibition curves for the compounds of the present disclosure were plotted using Prism GraphPad software, and the IC50 values were calculated therefrom.

[7] = target: T6, CK1α (Homo sapiens, UniProt P48729+Q96SW2); assay: Western blot degradation of CK1α in hPBMCs (24 h); assay type: cell-based; conditions: compounds at 50 nM and 500 nM
T6 construct: The supernatant was aspirated as the extracted total cell protein; endogenous in cells; host or cells: human peripheral blood mononuclear cells (hPBMCs)
In short: as §1

[8] = test system: Jurkat cells; assay: Inhibition of proliferation of T lymphocytic leukemia cells Jurkat (cell viability assay, 96 h); assay type: cell-based, human; conditions: read-out: inhibitory activity (IC50) against tumor cells proliferation, Jurkat
[9] = test system: MM.1S cells; assay: Inhibition of proliferation of multiple myeloma cells MM.1S (cell viability assay, 96 h); assay type: cell-based, human; conditions: read-out: inhibitory activity (IC50) against tumor cells proliferation, MM.1S

T6 sequence (P48729 whole entry): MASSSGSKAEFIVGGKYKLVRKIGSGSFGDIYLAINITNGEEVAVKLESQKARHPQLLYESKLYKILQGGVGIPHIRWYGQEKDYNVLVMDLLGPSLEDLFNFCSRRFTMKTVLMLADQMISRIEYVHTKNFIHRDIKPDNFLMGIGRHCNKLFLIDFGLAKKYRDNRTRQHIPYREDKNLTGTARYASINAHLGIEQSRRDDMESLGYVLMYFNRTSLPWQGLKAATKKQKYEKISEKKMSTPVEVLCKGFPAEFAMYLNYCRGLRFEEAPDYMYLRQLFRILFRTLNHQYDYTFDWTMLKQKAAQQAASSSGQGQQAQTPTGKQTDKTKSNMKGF
T6 sequence (Q96SW2 whole entry): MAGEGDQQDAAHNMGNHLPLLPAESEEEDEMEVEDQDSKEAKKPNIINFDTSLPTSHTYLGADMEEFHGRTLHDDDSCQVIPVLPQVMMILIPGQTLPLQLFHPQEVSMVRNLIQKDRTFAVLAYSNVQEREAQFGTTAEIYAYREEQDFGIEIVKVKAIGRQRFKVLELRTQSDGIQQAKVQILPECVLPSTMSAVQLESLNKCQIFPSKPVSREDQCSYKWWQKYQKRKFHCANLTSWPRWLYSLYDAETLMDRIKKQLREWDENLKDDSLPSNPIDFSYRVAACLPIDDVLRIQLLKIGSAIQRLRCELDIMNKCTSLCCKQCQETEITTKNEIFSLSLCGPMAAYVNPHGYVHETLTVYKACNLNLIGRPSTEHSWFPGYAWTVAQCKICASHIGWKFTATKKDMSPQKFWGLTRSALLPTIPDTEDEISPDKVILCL
T6 sequence (Q16531 whole entry partner): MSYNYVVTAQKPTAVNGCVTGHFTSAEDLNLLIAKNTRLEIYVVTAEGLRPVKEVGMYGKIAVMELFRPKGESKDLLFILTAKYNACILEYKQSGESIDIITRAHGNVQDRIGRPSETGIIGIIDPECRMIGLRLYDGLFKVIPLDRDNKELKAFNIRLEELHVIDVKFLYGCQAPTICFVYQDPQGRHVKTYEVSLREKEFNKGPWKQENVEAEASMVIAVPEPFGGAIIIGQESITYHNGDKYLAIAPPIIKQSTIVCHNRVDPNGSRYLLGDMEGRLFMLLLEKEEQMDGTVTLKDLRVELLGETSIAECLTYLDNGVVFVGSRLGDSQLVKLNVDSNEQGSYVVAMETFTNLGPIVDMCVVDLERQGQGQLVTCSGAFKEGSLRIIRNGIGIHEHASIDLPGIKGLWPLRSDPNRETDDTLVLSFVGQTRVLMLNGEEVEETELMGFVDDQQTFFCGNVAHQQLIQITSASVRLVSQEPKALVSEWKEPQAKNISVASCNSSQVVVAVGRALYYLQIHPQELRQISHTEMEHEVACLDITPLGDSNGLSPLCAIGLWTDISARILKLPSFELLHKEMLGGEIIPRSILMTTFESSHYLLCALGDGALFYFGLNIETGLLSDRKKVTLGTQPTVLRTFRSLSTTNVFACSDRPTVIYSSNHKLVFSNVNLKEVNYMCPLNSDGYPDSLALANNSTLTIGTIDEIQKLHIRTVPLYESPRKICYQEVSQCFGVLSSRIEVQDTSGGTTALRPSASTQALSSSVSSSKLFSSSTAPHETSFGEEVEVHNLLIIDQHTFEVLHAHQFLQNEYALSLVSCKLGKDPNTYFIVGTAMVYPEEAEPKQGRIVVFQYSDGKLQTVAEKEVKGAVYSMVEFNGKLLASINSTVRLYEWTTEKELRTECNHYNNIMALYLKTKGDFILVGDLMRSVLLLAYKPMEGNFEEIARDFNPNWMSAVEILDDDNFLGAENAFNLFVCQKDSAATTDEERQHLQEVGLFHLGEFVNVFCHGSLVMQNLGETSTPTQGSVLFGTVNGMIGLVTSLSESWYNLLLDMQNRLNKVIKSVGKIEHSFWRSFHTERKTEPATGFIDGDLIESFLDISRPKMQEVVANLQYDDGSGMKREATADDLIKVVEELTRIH
T2 sequence (Q9UKT9 whole entry): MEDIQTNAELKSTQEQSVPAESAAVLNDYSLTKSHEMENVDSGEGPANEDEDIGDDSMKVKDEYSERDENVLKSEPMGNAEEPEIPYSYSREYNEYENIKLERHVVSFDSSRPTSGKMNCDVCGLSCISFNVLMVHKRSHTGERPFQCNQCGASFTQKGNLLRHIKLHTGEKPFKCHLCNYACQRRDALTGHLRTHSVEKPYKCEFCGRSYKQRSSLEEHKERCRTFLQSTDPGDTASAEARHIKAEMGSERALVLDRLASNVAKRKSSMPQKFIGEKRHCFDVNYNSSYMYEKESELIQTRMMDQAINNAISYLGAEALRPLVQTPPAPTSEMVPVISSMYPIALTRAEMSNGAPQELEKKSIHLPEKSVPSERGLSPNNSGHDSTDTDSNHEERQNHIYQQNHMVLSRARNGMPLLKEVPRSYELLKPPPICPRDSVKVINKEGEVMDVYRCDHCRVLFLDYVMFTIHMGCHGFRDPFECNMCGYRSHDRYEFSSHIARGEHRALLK
T2 sequence (Q96SW2 whole entry): as the sequence (Q96SW2 whole entry) above
T2 sequence (Q16531 whole entry partner): as the sequence (Q16531 whole entry partner) above
T4 sequence (Q13422 whole entry): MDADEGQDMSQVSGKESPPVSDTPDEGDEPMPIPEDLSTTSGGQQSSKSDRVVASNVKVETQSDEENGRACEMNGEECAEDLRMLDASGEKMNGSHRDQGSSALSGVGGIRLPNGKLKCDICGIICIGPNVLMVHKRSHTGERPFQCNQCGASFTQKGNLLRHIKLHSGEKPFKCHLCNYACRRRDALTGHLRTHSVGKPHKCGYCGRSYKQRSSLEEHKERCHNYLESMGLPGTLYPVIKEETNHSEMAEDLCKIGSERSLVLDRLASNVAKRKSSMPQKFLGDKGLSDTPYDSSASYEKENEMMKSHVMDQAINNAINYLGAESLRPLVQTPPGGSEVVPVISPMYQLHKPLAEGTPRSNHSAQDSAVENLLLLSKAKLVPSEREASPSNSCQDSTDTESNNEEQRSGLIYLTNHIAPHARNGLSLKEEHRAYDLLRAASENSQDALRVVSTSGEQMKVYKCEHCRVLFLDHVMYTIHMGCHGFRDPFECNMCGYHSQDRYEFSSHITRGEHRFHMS
T4 sequence (Q96SW2 whole entry): as the sequence (Q96SW2 whole entry) above
T4 sequence (Q16531 whole entry partner): as the sequence (Q16531 whole entry partner) above
T5 sequence (P30291 whole entry): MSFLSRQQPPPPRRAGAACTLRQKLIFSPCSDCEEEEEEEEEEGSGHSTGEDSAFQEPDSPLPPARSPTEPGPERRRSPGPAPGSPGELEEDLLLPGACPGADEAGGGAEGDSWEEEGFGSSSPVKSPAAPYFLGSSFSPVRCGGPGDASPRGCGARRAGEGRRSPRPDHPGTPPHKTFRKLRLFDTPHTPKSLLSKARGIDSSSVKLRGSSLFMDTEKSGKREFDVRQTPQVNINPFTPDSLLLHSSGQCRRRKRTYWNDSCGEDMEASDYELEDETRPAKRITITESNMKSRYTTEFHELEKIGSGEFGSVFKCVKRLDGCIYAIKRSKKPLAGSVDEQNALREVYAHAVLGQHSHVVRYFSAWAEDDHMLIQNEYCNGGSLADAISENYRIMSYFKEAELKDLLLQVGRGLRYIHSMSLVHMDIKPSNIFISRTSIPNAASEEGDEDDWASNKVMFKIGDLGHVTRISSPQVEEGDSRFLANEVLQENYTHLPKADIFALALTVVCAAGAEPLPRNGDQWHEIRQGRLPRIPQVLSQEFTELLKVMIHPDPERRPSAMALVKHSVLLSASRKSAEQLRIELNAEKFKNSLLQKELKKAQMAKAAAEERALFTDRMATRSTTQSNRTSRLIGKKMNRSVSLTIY
T5 sequence (Q96SW2 whole entry): as the sequence (Q96SW2 whole entry) above
T5 sequence (Q16531 whole entry partner): as the sequence (Q16531 whole entry partner) above
T1 sequence (Q9UKS7 whole entry): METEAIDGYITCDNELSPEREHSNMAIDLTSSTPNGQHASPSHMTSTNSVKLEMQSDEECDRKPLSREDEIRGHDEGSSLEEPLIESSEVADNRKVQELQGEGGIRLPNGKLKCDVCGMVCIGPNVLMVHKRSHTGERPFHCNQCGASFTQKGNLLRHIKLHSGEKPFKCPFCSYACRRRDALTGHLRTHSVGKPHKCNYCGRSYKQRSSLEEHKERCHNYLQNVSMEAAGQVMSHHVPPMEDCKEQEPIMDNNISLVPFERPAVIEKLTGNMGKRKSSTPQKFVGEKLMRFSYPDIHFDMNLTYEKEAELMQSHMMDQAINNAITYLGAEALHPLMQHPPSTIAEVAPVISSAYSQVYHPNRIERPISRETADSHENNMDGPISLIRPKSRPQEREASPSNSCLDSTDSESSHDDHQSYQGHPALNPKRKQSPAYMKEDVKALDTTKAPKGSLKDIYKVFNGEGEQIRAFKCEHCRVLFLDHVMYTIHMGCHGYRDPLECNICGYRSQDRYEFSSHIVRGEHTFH
T1 sequence (Q96SW2 whole entry): as the sequence (Q96SW2 whole entry) above
T1 sequence (Q16531 whole entry partner): as the sequence (Q16531 whole entry partner) above

Row | SMILES | IKZF2 substrate protein remaining % [1] | IKZF3 substrate protein remaining % [2] | GSPT1 substrate protein remaining % [3] | IKZF1 substrate protein remaining % [4] | WEE1 substrate protein remaining % [5] | IC50 [6] [nM] | CK1α substrate protein remaining % [7] | IC50 [8] [nM] | IC50 [9] [nM]
1 | O=C1CCN(N2Cc3cc(CN4CCC(N(c5ccccc5)c5ccccn5)CC4)ccc3C2=O)C(=O)N1 [GT-04940, 1-(1-oxo-5-((4-(phenyl(pyridin-2-yl)amino)piperidin-1-yl)methyl)isoindolin-2-yl)dihydropyrimidine-2,4(1H,3H)-dione] | A (0% ≤ substrate protein remaining % ≤80%) | A (0% ≤ substrate protein remaining % ≤80%) | A (0% ≤ substrate protein remaining % ≤80%) | A (0% ≤ substrate protein remaining % ≤80%) | A (0% ≤ substrate protein remaining % ≤80%) | 100 to 300 | A (0% ≤ substrate protein remaining % ≤80%) | 100 to 300 | 50 to 100
2 | Cc1cscc1C1=CCN(Cc2ccc3c(c2)CN(N2CCC(=O)NC2=O)C3=O)CC1 [GT-04872, 1-(5-((4-(4-methylthiophen-3-yl)-3,6-dihydropyridin-1(2H)-yl)methyl)-1-oxoisoindolin-2-yl)dihydropyrimidine-2,4(1H,3H)-dione] | B (80%< substrate protein remaining % ≤100%) | B (80%< substrate protein remaining % ≤100%) | A (0% ≤ substrate protein remaining % ≤80%) | A (0% ≤ substrate protein remaining % ≤80%) | A (0% ≤ substrate protein remaining % ≤80%) | 100 to 300 | B (80%< substrate protein remaining % ≤100%) | 100 to 300 | 10 to 50
3 | O=C1CCN(N2Cc3cc(CN4CCN(c5cccc(Cl)c5Cl)CC4)ccc3C2=O)C(=O)N1 [GT-04853, 1-(5-((4-(2,3-dichlorophenyl)piperazin-1-yl)methyl)-1-oxoisoindolin-2-yl)dihydropyrimidine-2,4(1H,3H)-dione] | A (0% ≤ substrate protein remaining % ≤80%) | B (80%< substrate protein remaining % ≤100%) | A (0% ≤ substrate protein remaining % ≤80%) | A (0% ≤ substrate protein remaining % ≤80%) | A (0% ≤ substrate protein remaining % ≤80%) | 500 to 1000 | B (80%< substrate protein remaining % ≤100%) |  | 100 to 300
4 | O=C1CCN(N2Cc3cc(CN4CCN(C(c5ccccc5)c5ccccc5)CC4)ccc3C2=O)C(=O)N1 [GT-04889, 1-(5-((4-benzhydrylpiperazin-1-yl)methyl)-1-oxoisoindolin-2-yl)dihydropyrimidine-2,4(1H,3H)-dione] | A (0% ≤ substrate protein remaining % ≤80%) | A (0% ≤ substrate protein remaining % ≤80%) | A (0% ≤ substrate protein remaining % ≤80%) | A (0% ≤ substrate protein remaining % ≤80%) | A (0% ≤ substrate protein remaining % ≤80%) | 300 to 500 | B (80%< substrate protein remaining % ≤100%) | 300 to 500 | 100 to 300
5 | O=C1CCN(N2Cc3cc(CN4CCC(N(c5ccccc5)c5ccccc5)CC4)ccc3C2=O)C(=O)N1 [GT-04939, 1-(5-((4-(diphenylamino)piperidin-1-yl)methyl)-1-oxoisoindolin-2-yl)dihydropyrimidine-2,4(1H,3H)-dione] | A (0% ≤ substrate protein remaining % ≤80%) | A (0% ≤ substrate protein remaining % ≤80%) | A (0% ≤ substrate protein remaining % ≤80%) | A (0% ≤ substrate protein remaining % ≤80%) | A (0% ≤ substrate protein remaining % ≤80%) | 100 to 300 | A (0% ≤ substrate protein remaining % ≤80%) | 100 to 300 | 10 to 50
6 | O=C1CCN(N2Cc3cc(CN4CCN(c5cccc6sccc56)CC4)ccc3C2=O)C(=O)N1 [GT-04866, 1-(5-((4-(benzo[b]thiophen-4-yl)piperazin-1-yl)methyl)-1-oxoisoindolin-2-yl)dihydropyrimidine-2,4(1H,3H)-dione] | B (80%< substrate protein remaining % ≤100%) | B (80%< substrate protein remaining % ≤100%) | A (0% ≤ substrate protein remaining % ≤80%) | A (0% ≤ substrate protein remaining % ≤80%) | A (0% ≤ substrate protein remaining % ≤80%) | 300 to 500 | B (80%< substrate protein remaining % ≤100%) | 300 to 500 | 100 to 300
7 | O=C1CCN(N2Cc3cc(CN4CCN(C(c5ccccc5)c5ccccn5)CC4)ccc3C2=O)C(=O)N1 (stereo not shown) [GT-04890, 1-(1-oxo-5-((4-(phenyl(pyridin-2-yl)methyl)piperazin-1-yl)methyl)isoindolin-2-yl)dihydropyrimidine-2,4(1H,3H)-dione] | A (0% ≤ substrate protein remaining % ≤80%) | B (80%< substrate protein remaining % ≤100%) | A (0% ≤ substrate protein remaining % ≤80%) | A (0% ≤ substrate protein remaining % ≤80%) | B (80%< substrate protein remaining % ≤100%) | 500 to 1000 | B (80%< substrate protein remaining % ≤100%) |  | 100 to 300
8 | O=C1CCN(N2Cc3cc(CN4CC=C(c5cccs5)CC4)ccc3C2=O)C(=O)N1 [GT-04868, 1-(1-oxo-5-((4-(thiophen-2-yl)-3,6-dihydropyridin-1(2H)-yl)methyl)isoindolin-2-yl)dihydropyrimidine-2,4(1H,3H)-dione] | B (80%< substrate protein remaining % ≤100%) | B (80%< substrate protein remaining % ≤100%) | A (0% ≤ substrate protein remaining % ≤80%) | A (0% ≤ substrate protein remaining % ≤80%) | A (0% ≤ substrate protein remaining % ≤80%) | 300 to 500 | A (0% ≤ substrate protein remaining % ≤80%) | 300 to 500 | 100 to 300
9 | Cc1ccc(C2=CCN(Cc3ccc4c(c3)CN(N3CCC(=O)NC3=O)C4=O)CC2)s1 [GT-04869, 1-(5-((4-(5-methylthiophen-2-yl)-3,6-dihydropyridin-1(2H)-yl)methyl)-1-oxoisoindolin-2-yl)dihydropyrimidine-2,4(1H,3H)-dione] | A (0% ≤ substrate protein remaining % ≤80%) | A (0% ≤ substrate protein remaining % ≤80%) | A (0% ≤ substrate protein remaining % ≤80%) | A (0% ≤ substrate protein remaining % ≤80%) | A (0% ≤ substrate protein remaining % ≤80%) | 300 to 500 | B (80%< substrate protein remaining % ≤100%) | 300 to 500 | 50 to 100
